Measured values as given in patent US20180057447A1, “METHYL MENTHOL DERIVATIVE AND COOLING AGENT COMPOSITION CONTAINING SAME” (TAKASAGO INTERNATIONAL CORPORATION, priority 2015, published 2018).
Entries after “also recorded” stand apart in the source; their conditions may differ.

Legend:
[1] = Evaluation of cool feeling intensity (EC50, with reference to NPL 6); assay type: cell-based; conditions: index of the cool feeling intensity; read-out: EC50 (concentration at which a cool feeling is felt)
Procedure: The measurement of the cool feeling intensity was performed with reference to NPL 6. A concentration EC50 at which a cool feeling is felt is shown below as the index of the cool feeling intensity.

[2] = Sensory evaluation of aqueous solutions against comparative compounds; assay type: in vivo; conditions: for course / persistence of cool feeling intensity / start of cool feeling / taste and accompanying sensations (umami, salty, bitterness, numbness, fiery feeling): vs Comparative Compound 3; for cool feeling characteristic: rac-14a-38 vs Comparative Compound 1 (Evercool 180)
Procedure: Sensory Evaluation was performed by comparison with Comparative Compound 1 (Evercool 180), which has a strong cool feeling among conventionally known compounds, and has a similar structure. Each of Exemplary Compound rac-14a-38 and Comparative Compound 1 was prepared as a 2 ppm aqueous solution, and the evaluation was performed.
Sensory Evaluation was performed by comparison with Comparative Compound 2, which is conventionally known, and has a similar structure. Each of Exemplary Compound rac-14a-23 and Comparative Compound 2 was prepared as a 30 ppm aqueous solution, and the evaluation was performed.
Sensory Evaluation was performed by comparison with Comparative Compound 3, which is conventionally known, and has a similar structure. Each of Exemplary Compound rac-14a-34 and Comparative Compound 3 was prepared as a 30 ppm aqueous solution, and the evaluation was performed.
Sensory Evaluation was performed by comparison with Comparative Compound 3, which is conventionally known, and has a similar structure. Each of Exemplary Compound rac-14a-40 and Comparative Compound 3 was prepared as a 30 ppm aqueous solution, and the evaluation was performed.
Sensory Evaluation was performed by comparison with Comparative Compound 3 which is conventionally known. Each of Exemplary Compound rac-14a-46 and Comparative Compound 3 was prepared as a 30 ppm aqueous solution, and the evaluation was performed.
Sensory Evaluation was performed by comparison with Comparative Compound 3 which is conventionally known. Each of Exemplary Compound rac-14a-41 and Comparative Compound 3 was prepared as a 30 ppm aqueous solution, and the evaluation was performed.
Sensory Evaluation was performed by comparison with Comparative Compound 3 which is conventionally known. Each of Exemplary Compound rac-14a-47 and Comparative Compound 3 was prepared as a 30 ppm aqueous solution, and the evaluation was performed.

[3] = 30 ppm aqueous solution, vs Comparative Compound 2

Row | Structure (SMILES) | EC50 [1] | melting point | also measured
1 | CC(C)[C@H]1CCC(C)(C)C[C@@H]1OC(=O)[C@H](C)O [(1S,2R)-17a-2, (S)-((1S,2R)-2-isopropyl-5,5-dimethylcyclohexyl)2-hydroxypropanoate] | 24500 nM | – | –
2 | CC(C)C1CCC(C)(C)CC1C(N)=O (stereo not shown) [14a-50, 2-isopropyl-5,5-dimethylcyclohexanecarboxamide] | 15500 nM | 141 to 145 °C | –
3 | CC(C)C1CCC(C)(C)CC1C(=O)NCCc1ccccn1 (racemic) [rac-14a-16, 2-isopropyl-5,5-dimethyl-N-(2-(pyridin-2-yl)ethyl)cyclohexanecarboxamide] | 130 nM | 104 to 107 °C | –
4 | COc1ccc(NC(=O)C2CC(C)(C)CCC2C(C)C)cc1 (racemic) [rac-14a-34, 2-isopropyl-N-(4-methoxyphenyl)-5,5-dimethylcyclohexanecarboxamide] | 55 nM | 115 to 118 °C | course / persistence of cool feeling intensity ([2]; 30 ppm aqueous solution): increased over time; start of cool feeling ([2]; 30 ppm aqueous solution): later than Comparative Compound 3; taste and accompanying sensations (umami, salty, bitterness, numbness, fiery feeling) ([2]; 30 ppm aqueous solution): comparable to that of Comparative Compound 3; also recorded: the secretion of saliva continued
5 | CC(C)C1CCC(C)(C)CC1C(=O)Nc1ccc(CC#N)cc1 (racemic) [rac-14a-38, N-(4-(cyanomethyl)phenyl)-2-isopropyl-5,5-dimethylcyclohexanecarboxamide] | 240 nM | 121 to 122 °C | lapse until cool feeling exhibited after put in the mouth ([2]; 2 ppm aqueous solution): 1 minute to several minutes; persistence of cool feeling ([2]; 2 ppm aqueous solution): ≥ 30 min; cool feeling characteristic ([2]; 2 ppm aqueous solution): more natural than that of Comparative Compound 1; also recorded: only a cool feeling was felt; also recorded: sharper than that of Comparative Compound 1
6 | CC(C)[C@@H]1CCC(C)(C)C[C@H]1C(=O)Nc1ccc(CC#N)cc1 [14a-38i, (−)-trans-N-(4-(cyanomethyl)phenyl)-2-isopropyl-5,5-dimethylcyclohexanecarboxamide] | 140 nM | – | –
7 | CC(C)[C@@H]1CC[C@@H](C)C[C@H]1C(=O)Nc1ccc(CC#N)cc1 [Evercool 180, reference compound] | – | – | cool feeling characteristic ([2]; 2 ppm aqueous solution): menthol-like characteristic
8 | CCNC(=O)C1CC(C)(C)CCC1C(C)C (racemic) [rac-14a-2, N-ethyl-2-isopropyl-5,5-dimethylcyclohexanecarboxamide] | 2270 nM | 101 to 105 °C | –
9 | CC(C)[C@@H]1CCC(C)(C)C[C@H]1OC(=O)[C@H](C)O [(1R,2S)-17a-2, (S)-((1R,2S)-2-isopropyl-5,5-dimethylcyclohexyl)2-hydroxypropanoate] | 78500 nM | – | –
10 | CC(C)C1CCC(C)(C)CC12OCC(CO)O2 (racemic) [(1R,2S)-19a-1, (6-isopropyl-9,9-dimethyl-1,4-dioxaspiro[4.5]decan-2-yl)methanol] | 32400 nM | – | –
11 | CCOC(=O)CNC(=O)C1CC(C)(C)CCC1C(C)C (racemic) [rac-14a-23, ethyl 2-(2-isopropyl-5,5-dimethylcyclohexanecarboxamide) acetate] | 490 nM | 104 to 107 °C | cool feeling intensity peak [2, 3]: comparable to that of Comparative Compound 2; exhibition of a cool feeling (start) [2, 3]: later than Comparative Compound 2; persistence of cool feeling [2, 3]: superior to that of Comparative Compound 2; sharp cool feeling stimulation [2, 3]: stronger than that in Comparative Compound 2

Continued, in another order:

Row | EC50 [1] | melting point | Structure (SMILES) | also measured
12 | 3530 nM | – | COC(=O)c1ccc(NC(=O)C2CC(C)(C)CCC2C(C)C)cc1 (racemic) [rac-14a-45, methyl 4-(2-isopropyl-5,5-dimethylcyclohexanecarboxamide) benzoate] | –
13 | 27 nM | 93 to 98 °C | COc1ccc(NC(=O)C2CC(C)(C)CCC2C(C)C)cc1O (racemic) [rac-14a-41, N-(3-hydroxy-4-methoxyphenyl)-2-isopropyl-5,5-dimethylcyclohexanecarboxamide] | course / persistence of cool feeling intensity ([2]; 30 ppm aqueous solution): also has persistence; start of cool feeling ([2]; 30 ppm aqueous solution): slightly earlier than Comparative Compound 3; taste and accompanying sensations (umami, salty, bitterness, numbness, fiery feeling) ([2]; 30 ppm aqueous solution): Chemical-like bitterness was somewhat felt as a first taste; also recorded: accompanied by a clear feeling than a fiery feeling
14 | 79 nM | – | COc1ccc(NC(=O)C2CC(C)(C)CCC2C(C)C)c(C)c1 (racemic) [rac-14a-40, 2-isopropyl-N-(4-methoxy-2-methylphenyl)-5,5-dimethylcyclohexanecarboxamide] | taste and accompanying sensations (umami, salty, bitterness, numbness, fiery feeling) ([2]; 30 ppm aqueous solution): stronger and shaper than those of Comparative Compound 3; also recorded: Umami and a numbness feeling were exhibited simultaneously
15 | 48 nM | 165 to 172 °C | CC(C)C1CCC(C)(C)CC1C(=O)Nc1ccc(CO)cc1 (racemic) [rac-14a-47, N-(4-(hydroxymethyl)phenyl)-2-isopropyl-5,5-dimethylcyclohexanecarboxamide] | course / persistence of cool feeling intensity ([2]; 30 ppm aqueous solution): also has persistence; start of cool feeling ([2]; 30 ppm aqueous solution): early start of a cool feeling; taste and accompanying sensations (umami, salty, bitterness, numbness, fiery feeling) ([2]; 30 ppm aqueous solution): stronger umami was felt than that in Comparative Compound 3; also recorded: accompanied by a fiery feeling (burning feeling)
16 | 64700 nM | – | CC(C)[C@@H]1CCC(C)(C)C[C@H]1OC(=O)[C@H](C)O (racemic) [rac-17a-2, (S)-(trans-2-isopropyl-5,5-dimethylcyclohexyl)2-hydroxypropanoate] | –
17 | 1500 nM | – | COC(=O)c1ccc(NC(=O)C2CC(C)(C)CCC2C(C)C)c(C)c1 (racemic) [rac-14a-46, methyl 4-(2-isopropyl-5,5-dimethylcyclohexanecarboxamide)-3-methylbenzoate] | course / persistence of cool feeling intensity ([2]; 30 ppm aqueous solution): the cool feeling intensity persisted; start of cool feeling ([2]; 30 ppm aqueous solution): the start was late; taste and accompanying sensations (umami, salty, bitterness, numbness, fiery feeling) ([2]; 30 ppm aqueous solution): clear and light touch characteristic of an ester
18 | 5240 nM | – | COC(=O)c1cccc(NC(=O)C2CC(C)(C)CCC2C(C)C)c1 (racemic) [rac-14a-44, methyl 3-(2-isopropyl-5,5-dimethylcyclohexanecarboxamide) benzoate] | –
